The conditions of data set [1]: human.
For data set [2] the following is noted: human. This is another data set of the same source.
For data set [3] the following is noted: human, serum.
For data set [4] the following is noted: human. This is another data set of the same source.
The conditions of data set [5]: human, serum. The source holds these as a separate data set.
Data set [6] can be described thus: Highest frequency of moderate liver toxicity observed during clinical trials, expressed as a percentage. [column '% BIOL' in source]. The note with it: human.
The conditions of data set [7]: human. This is another data set of the same source.
For data set [8] the following is noted: human. The source holds these as a separate data set.
The conditions of data set [9]: human, serum, 4383 h.
For data set [10] the following is noted: human. This is another data set of the same source.
A short description of data set [11]: Times to onset, minimal and maximal, observed in the indexed observations. [column 'DELAI' in source]. The note with it: human.
The conditions of data set [12]: human. The source holds these as a separate data set.
The conditions of data set [13]: human. The source holds these as a separate data set.
Data set [14] is described as follows: Highest frequency of acute liver toxicity observed during clinical trials, expressed as a percentage. [column '% AIGUE' in source]. The note with it: human.
For data set [15] the following is noted: human. This is another data set of the same source.
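Wherever Hepatotoxicity (association with vascular disease) is given: count of indexed literature references reporting vascular liver injury in humans, e.g. peliosis hepatitis, hepatic veno-occlusive disease or Budd-Chiari syndrome.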
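Wherever Hepatotoxicity (benign tumour) is given: value is a count of indexed literature references citing a benign tumour confirmed by histopathology.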
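Wherever Hepatotoxicity (choleostasis) is given: human cholestatic liver injury, shown by histopathology or by peak ALT or AST elevation over alkaline phosphatase ratio below 2, value counts indexed literature reports.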
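Wherever Hepatotoxicity (chronic liver disease) is given: chronic liver injury confirmed by histopathology or persistently raised serum aminotransferase activity beyond 6 months, value given as the count of indexed literature references.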
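Wherever Hepatotoxicity (cirrhosis) is given: value is a count of indexed literature references reporting cirrhosis confirmed by histopathology.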
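Wherever Hepatotoxicity (cytolytic) is given: human cytolytic liver injury, shown by histopathology or by a ratio above 5 of peak ALT or AST elevation to alkaline phosphatase elevation, value counts indexed references.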
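Wherever Hepatotoxicity (granulomatous hepatitis) is given: value is a count of indexed literature references reporting granulomatous liver disease confirmed by histopathology.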
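Wherever Hepatotoxicity (malignant tumour) is given: malignant tumour confirmed by histopathology, value gives the count of indexed literature references reporting it.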
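Wherever Hepatotoxicity (severe hepatitis) is given: human clinical data: severe hepatitis, meaning potentially life-threatening liver failure or clinically observed cases, the value counts how many indexed literature references report it.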
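Wherever Hepatotoxicity (steatosis) is given: steatosis confirmed by histopathology, value is the count of indexed references.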

Turning to `CC1=C(/C=C/C(C)=C/C=C/C(C)=C/C(=O)Nc2ccc(O)cc2)C(C)(C)CCC1` [FENRETINIDE], the “Hepatotoxicity (granulomatous hepatitis)” value in data set [1] worked out at 0. In addition, the “Hepatotoxicity (choleostasis)” value in [2] was 0. Besides, the “Hepatotoxicity (moderate)” value came to 3 in data set [3] and 12.8% in [6]. In data set [4], the “Hepatotoxicity (severe hepatitis)” value stood at 0. Moreover, the “Hepatotoxicity (acute)” value worked out at 0 in data set [5] and 0% in data set [14]. Further, in data set [7], the “Hepatotoxicity (cirrhosis)” value stood at 0. Also, the “Hepatotoxicity (malignant tumour)” value in data set [8] is recorded as 0. In addition, the “Hepatotoxicity (chronic liver disease)” value in data set [9] is listed as 0. For the same compound, the “Hepatotoxicity (cytolytic)” value in data set [10] is listed as 0. The “Hepatotoxicity (time to onset)” value in [11] was 1 week. The “Hepatotoxicity (benign tumour)” value in data set [12] is 0. Besides, the “Hepatotoxicity (association with vascular disease)” value in data set [13] came out at 0. The “Hepatotoxicity (steatosis)” value in data set [15] came out at 0.

For `O=C(O)Cc1sc(-c2ccccc2)nc1-c1ccc(Cl)cc1` [FENTIAZAC], the “Hepatotoxicity (granulomatous hepatitis)” value in data set [1] amounted to 0. In addition, the “Hepatotoxicity (choleostasis)” value in data set [2] was 0. Also, the “Hepatotoxicity (moderate)” value is on record as 3 in [3] and 35% in data set [6]. Besides, the “Hepatotoxicity (severe hepatitis)” value in [4] was 0. In addition, the “Hepatotoxicity (acute)” value came out at 2 in data set [5] and 6.1% in [14]. The “Hepatotoxicity (cirrhosis)” value in data set [7] was 0. The “Hepatotoxicity (malignant tumour)” value in [8] was found to be 0. In data set [9], the “Hepatotoxicity (chronic liver disease)” value came out at 0. Further, the “Hepatotoxicity (cytolytic)” value in [10] worked out at 1. Also, the “Hepatotoxicity (time to onset)” value in [11] was 4 months - 5 months. Further, the “Hepatotoxicity (benign tumour)” value in [12] is given as 0. Moreover, the “Hepatotoxicity (association with vascular disease)” value in [13] amounted to 0. Moreover, the “Hepatotoxicity (steatosis)” value in data set [15] came to 0.

On to `CC(C)=CCC1C(=O)N(c2ccccc2)N(c2ccccc2)C1=O` [FEPRAZONE], for which the “Hepatotoxicity (granulomatous hepatitis)” value in data set [1] was 1. For the same compound, in data set [2], the “Hepatotoxicity (choleostasis)” value amounted to 2. The “Hepatotoxicity (moderate)” value in [3] came out at 1; in [6], 0%. Besides, the “Hepatotoxicity (severe hepatitis)” value in data set [4] amounted to 0. The “Hepatotoxicity (acute)” value is 2 in data set [5] and 0% in data set [14]. For the same compound, the “Hepatotoxicity (cirrhosis)” value in data set [7] is reported as 0. Moreover, the “Hepatotoxicity (malignant tumour)” value in data set [8] worked out at 0. The “Hepatotoxicity (chronic liver disease)” value in data set [9] is listed as 0. Moreover, the “Hepatotoxicity (cytolytic)” value in [10] was 2. Moreover, the “Hepatotoxicity (time to onset)” value in [11] is recorded as 2 weeks - 1 month. Further, the “Hepatotoxicity (benign tumour)” value in data set [12] is on record as 0. Further, the “Hepatotoxicity (association with vascular disease)” value in data set [13] was 0. For the same compound, the “Hepatotoxicity (steatosis)” value in data set [15] is reported as 0.

Regarding `O=C(COc1ccc(Cl)cc1)N1CCN(Cc2ccc3c(c2)OCO3)CC1` [FIPEXIDE], the “Hepatotoxicity (granulomatous hepatitis)” value in data set [1] was determined as 0. The “Hepatotoxicity (choleostasis)” value in [2] is on record as 0. The entries for the “Hepatotoxicity (moderate)” value in data set [3] and in data set [6] were 0 and 0%, respectively. In [4], the “Hepatotoxicity (severe hepatitis)” value is 1. Further, the “Hepatotoxicity (acute)” value in [5] was 4; in data set [14] it was 0%. In data set [7], the “Hepatotoxicity (cirrhosis)” value came out at 0. Also, the “Hepatotoxicity (malignant tumour)” value in data set [8] is 0. Also, the “Hepatotoxicity (chronic liver disease)” value in data set [9] is given as 0. In addition, in data set [10], the “Hepatotoxicity (cytolytic)” value is recorded as 3. The “Hepatotoxicity (time to onset)” value in data set [11] is given as 15 days - 3 months. Moreover, in [12], the “Hepatotoxicity (benign tumour)” value was 0. In data set [13], the “Hepatotoxicity (association with vascular disease)” value turned out to be 0. In addition, the “Hepatotoxicity (steatosis)” value in data set [15] was 0.

As to `Cc1c(-c2ccccc2)oc2c(C(=O)OCCN3CCCCC3)cccc2c1=O` [FLAVOXATE], in data set [1], the “Hepatotoxicity (granulomatous hepatitis)” value is 0. Besides, the “Hepatotoxicity (choleostasis)” value in [2] is 0. Besides, the “Hepatotoxicity (moderate)” value in [3] turned out to be 0; in [6] it was 0%. Further, the “Hepatotoxicity (severe hepatitis)” value in data set [4] worked out at 0. For the same compound, the results for the “Hepatotoxicity (acute)” value in data set [5] and in data set [14] were 1 and 0%, respectively. Also, the “Hepatotoxicity (cirrhosis)” value in data set [7] is 0. Besides, in data set [8], the “Hepatotoxicity (malignant tumour)” value is 0. For the same compound, the “Hepatotoxicity (chronic liver disease)” value in [9] is 0. Further, the “Hepatotoxicity (cytolytic)” value in data set [10] is 1. For the same compound, in data set [11], the “Hepatotoxicity (time to onset)” value is recorded as 2.5 months. Moreover, in data set [12], the “Hepatotoxicity (benign tumour)” value was found to be 0. Besides, in [13], the “Hepatotoxicity (association with vascular disease)” value stood at 0. For the same compound, the “Hepatotoxicity (steatosis)” value in [15] is on record as 0.

Regarding `O=C(NCCN1CCN(c2cccc3c2OC[C@H](CO)O3)CC1)c1ccc(F)cc1` [FLESINOXAN], in data set [1], the “Hepatotoxicity (granulomatous hepatitis)” value is 0. Further, the “Hepatotoxicity (choleostasis)” value in data set [2] is 0. Also, the results for the “Hepatotoxicity (moderate)” value in [3] and in data set [6] were 1 and 12.5%, respectively. Further, the “Hepatotoxicity (severe hepatitis)” value in data set [4] stood at 0. The “Hepatotoxicity (acute)” value in [5] is 0; in data set [14] it was 0%. Further, the “Hepatotoxicity (cirrhosis)” value in data set [7] is reported as 0. The “Hepatotoxicity (malignant tumour)” value in data set [8] was 0. Further, the “Hepatotoxicity (chronic liver disease)” value in [9] worked out at 0. Besides, in data set [10], the “Hepatotoxicity (cytolytic)” value is recorded as 0. In [11], the “Hepatotoxicity (time to onset)” value stood at 6 weeks. Moreover, the “Hepatotoxicity (benign tumour)” value in data set [12] is recorded as 0. For the same compound, in [13], the “Hepatotoxicity (association with vascular disease)” value stood at 0. In addition, the “Hepatotoxicity (steatosis)” value in data set [15] came to 0.

Turning to `CCN(CC)CCN1C(=O)CN=C(c2ccccc2F)c2cc(Cl)ccc21` [FLURAZEPAM], the “Hepatotoxicity (granulomatous hepatitis)” value in data set [1] was 0. Besides, the “Hepatotoxicity (choleostasis)” value in data set [2] is on record as 3. For the same compound, the “Hepatotoxicity (moderate)” value in data set [3] amounted to 0; in data set [6], 0%. For the same compound, the “Hepatotoxicity (severe hepatitis)” value in data set [4] is on record as 0. Besides, the “Hepatotoxicity (acute)” value in [5] is given as 3; in data set [14], 0%. Besides, the “Hepatotoxicity (cirrhosis)” value in [7] came out at 0. Besides, the “Hepatotoxicity (malignant tumour)” value in [8] amounted to 0. Moreover, the “Hepatotoxicity (chronic liver disease)” value in data set [9] worked out at 0. Besides, the “Hepatotoxicity (cytolytic)” value in data set [10] came to 0. For the same compound, in data set [11], the “Hepatotoxicity (time to onset)” value is recorded as 2 weeks - 6 months. For the same compound, the “Hepatotoxicity (benign tumour)” value in data set [12] is 0. Besides, the “Hepatotoxicity (association with vascular disease)” value in data set [13] amounted to 0. Further, the “Hepatotoxicity (steatosis)” value in data set [15] is 1.

Regarding `Nc1ccn([C@@H]2O[C@H](CO)[C@@H](O)C2(F)F)c(=O)n1` [GEMCITABINE], the “Hepatotoxicity (granulomatous hepatitis)” value in [1] was found to be 0. In addition, the “Hepatotoxicity (choleostasis)” value in data set [2] was found to be 3. Moreover, the “Hepatotoxicity (moderate)” value is recorded as 13 in [3] and 90.9% in data set [6]. In addition, in data set [4], the “Hepatotoxicity (severe hepatitis)” value turned out to be 2. Moreover, the “Hepatotoxicity (acute)” value is 12 in data set [5] and 45.5% in data set [14]. The “Hepatotoxicity (cirrhosis)” value in [7] amounted to 0. The “Hepatotoxicity (malignant tumour)” value in data set [8] was 0. For the same compound, in data set [9], the “Hepatotoxicity (chronic liver disease)” value is listed as 0. The “Hepatotoxicity (cytolytic)” value in [10] is reported as 6. In data set [11], the “Hepatotoxicity (time to onset)” value is on record as 1 cure - 7 cures. The “Hepatotoxicity (benign tumour)” value in data set [12] was determined as 0. For the same compound, the “Hepatotoxicity (association with vascular disease)” value in data set [13] is on record as 2. Moreover, in data set [15], the “Hepatotoxicity (steatosis)” value was determined as 0.

For `CO/N=C1\CN(c2nc3c(cc2F)c(=O)c(C(=O)O)cn3C2CC2)CC1CN` (stereo not given) [GEMIFLOXACIN], the “Hepatotoxicity (granulomatous hepatitis)” value in data set [1] was found to be 0. Further, the “Hepatotoxicity (choleostasis)” value in [2] turned out to be 0. Also, the “Hepatotoxicity (moderate)” value in [3] amounted to 4; in data set [6], 0.3%. Besides, the “Hepatotoxicity (severe hepatitis)” value in data set [4] stood at 0. In addition, the “Hepatotoxicity (acute)” value in data set [5] was 0; in data set [14], 0%. In addition, the “Hepatotoxicity (cirrhosis)” value in data set [7] was found to be 0. Moreover, in data set [8], the “Hepatotoxicity (malignant tumour)” value stood at 0. For the same compound, the “Hepatotoxicity (chronic liver disease)” value in [9] was 0. For the same compound, the “Hepatotoxicity (cytolytic)” value in data set [10] worked out at 0. The “Hepatotoxicity (time to onset)” value in data set [11] was 6 days. The “Hepatotoxicity (benign tumour)” value in [12] stood at 0. Moreover, the “Hepatotoxicity (association with vascular disease)” value in [13] was 0. In [15], the “Hepatotoxicity (steatosis)” value came out at 0.

On to `CN1C2CCCC1CC(NC(=O)c1nn(C)c3ccccc13)C2` (stereo not given) [GRANISETRON], for which the “Hepatotoxicity (granulomatous hepatitis)” value in data set [1] amounted to 0. Moreover, the “Hepatotoxicity (choleostasis)” value in data set [2] amounted to 0. The “Hepatotoxicity (moderate)” value in data set [3] was found to be 2; in [6], 7.9%. Further, the “Hepatotoxicity (severe hepatitis)” value in data set [4] came to 0. Also, the “Hepatotoxicity (acute)” value in data set [5] was 0; in [14] it was 0%. Moreover, the “Hepatotoxicity (cirrhosis)” value in [7] is listed as 0. Besides, in [8], the “Hepatotoxicity (malignant tumour)” value turned out to be 0. For the same compound, in data set [9], the “Hepatotoxicity (chronic liver disease)” value amounted to 0. In data set [10], the “Hepatotoxicity (cytolytic)” value is recorded as 0. For the same compound, the “Hepatotoxicity (time to onset)” value in data set [11] was found to be 1 week. The “Hepatotoxicity (benign tumour)” value in [12] was determined as 0. Further, the “Hepatotoxicity (association with vascular disease)” value in [13] was found to be 0. Besides, the “Hepatotoxicity (steatosis)” value in data set [15] is 0.

In the case of `N=C(N)NCC1COc2ccccc2O1` (stereo not given) [GUANOXAN], the “Hepatotoxicity (granulomatous hepatitis)” value in [1] was found to be 0. The “Hepatotoxicity (choleostasis)” value in [2] is recorded as 2. Besides, the results for the “Hepatotoxicity (moderate)” value in [3] and in data set [6] were 2 and 30%, respectively. Besides, in data set [4], the “Hepatotoxicity (severe hepatitis)” value amounted to 1. Further, the results for the “Hepatotoxicity (acute)” value in data set [5] and in data set [14] were 2 and 10%, respectively. The “Hepatotoxicity (cirrhosis)” value in [7] was 0. For the same compound, in data set [8], the “Hepatotoxicity (malignant tumour)” value was 0. The “Hepatotoxicity (chronic liver disease)” value in [9] worked out at 0. Also, the “Hepatotoxicity (cytolytic)” value in data set [10] was 1. Also, in data set [11], the “Hepatotoxicity (time to onset)” value worked out at 2 months - 1 year. The “Hepatotoxicity (benign tumour)” value in data set [12] was 0. Besides, the “Hepatotoxicity (association with vascular disease)” value in data set [13] stood at 0. Moreover, the “Hepatotoxicity (steatosis)” value in data set [15] amounted to 0.

Source of the values: ChEMBL document CHEMBL3137667, “[Drug-induced liver injury; fourteenth updated edition of the bibliographic database of liver injuries and related drugs]” (Gastroenterol Clin Biol, 2004).
